Measurements as given in paper PMC10622577, “Structural basis for stabilisation of the RAD51 nucleoprotein filament by BRCA2” (Nature Communications, 2023).

Legend:
[1] = test system: RAD51 NPFs on DNA capped at both ends with mSA; assay: EMSA of TR2 binding to RAD51 NPFs on mSA-capped DNA; parameters: species or system human; settings: doubly-biotinylated ss- and dsDNA, mSA in 5× molar excess of biotin labels; SYBR Gold; two independent repeats
Excerpt: To understand the structural basis for the association of the BRCA2 C-terminus with the RAD51 nucleoprotein filament, we sought to determine the structure of a RAD51-DNA-TR2 filament by high-resolution cryo-electron microscopy (cryoEM). […] Individual filaments within a bundle appeared to be in translational register relative to each other as it was possible to obtain well-resolved 2D classes of filament pairs (Supplementary fig. 5A, Supplementary Table 1). Filament aggregation induced by TR2 complicated picking of individual filament particles and prevented structural determination by cryoEM. We therefore sought to develop a method to prepare RAD51 NPFs in the presence of TR2 peptide without causing filament bundling. We reasoned that bundling might be alleviated by capping the DNA substrate with a bulky tag, to prevent filament aggregation by steric interference. We therefore prepared ss- and dsDNA substrates with a biotin tag at either one end or both ends, that could be bound by monomeric streptavidin (mSA) (Supplementary Fig. 5B, Supplementary Table 1).
Fig. 2 BRCA2 TR2 induces bundling of RAD51 nucleoprotein filaments. […]
Before electrophoresis, samples were mixed with a 0.5:1 volume of 50% (w/v) sucrose solution and analysed on a pre-run 0.5% (w/v) agarose gel in 0.5× TB buffer at 35 V for 2.5 hours at 4 °C. […]

[2] = test system: RAD51 S181C; assay: RAD51–TR2 disulphide cross-linking, SDS-PAGE; parameters: species or system human; settings: RAD51 S181C 10 μM, 0.5 μM ssDNA, 1.25 μM Cy3-TR2, 2 mM hydrogen peroxide 5 min; pH 7.5; non-reducing SDS-PAGE; repeated three times
Excerpt: To further validate our model of the RAD51–TR2 interaction, we mutated RAD51 S181 to a cysteine to enable disulphide formation with TR2 C3304, which would support its presence at the TR2-RAD51 interface, as identified in the structure.
Fig. 5 Structure-guided BRCA2 TR2 cross-linking to RAD51. A Drawing of the RAD51–TR2 interface, highlighting that amino acids BRCA2 C3304 and RAD51 S181 are spatially close, so that the RAD51 S181C mutant can form a disulphide bridge with C3304 in the TR2 peptide. B SDS-PAGE analysis of cross-linking reactions between RAD51 S181C and TR2 in the presence of hydrogen peroxide. Wild-type RAD51 and the reducing agent DTT were used as controls. Protein bands were visualised with Coomassie Blue. C Same experiment as in B, visualised with 532 nm excitation of the Cy3-labelled TR2 peptide. Experiment was repeated three times. Source data are provided as a Source Data file.
Cross-linking reactions were prepared in buffer: 25 mM HEPES pH 7.5, 150 mM NaCl, 2 mM ATP, 5 mM CaCl2, supplemented with 0.5 μM ssDNA. WT or S181C RAD51 was added to a final concentration of 10 μM and incubated for 15 minutes at room temperature. […] Each crosslinked sample was analysed by SDS-PAGE, using gel-loading dye with DTT (reducing) or without DTT (non-reducing), on a 12% Bis-Tris SDS-PAGE gel. […]

[3] = test system: DNA; settings: cited from earlier work
Excerpt: Our cryoEM maps let us model a highly conserved portion of BRCA2 TR2 that spans residues F3289 to C3304. TR2 sequence conservation extends N-terminally to our model, up to K3263. […] Indeed, the bi ...

For “DDQKNCKKRRALDFLSRLPLPPPVSPICTFVSPAAQKAFQPPRSCGTKY [TR2, BRCA2 TR2 peptide spanning amino acids 3260 to 3308]”, the “TR2 binding by RAD51 NPFs on mSA-capped DNA” value [1] is given as “competent to bind the TR2 peptide”, the “formation of crosslinked RAD51–TR2 species” value [2] is given as “readily detect formation of a crosslinked RAD51–TR2 species” and the “DNA-binding activity of TR2” value [3] is given as “harbours a DNA-binding activity centred on residues 3266-KKRR-3269”.
